In PubChem BioAssay (NCI):
“And” between values parts separate entries of the source, which are not always exact repeats. Equal values may be shown once.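 Growth conditions: 96-well plates. Treatment: test compound, 48 hours, 5 concentrations. Analysis: linear interpolation between bracketing concentrations; unreached endpoints set to highest concentration. Here, GI50 denotes the concentration required for 50% inhibition of growth. Definition used: TGI = concentration required for complete inhibition of growth.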

Key:
Assay in all cases: NCI anticancer screen, dose series, 48 h
CCRF-CEM leukemia = test system: CCRF-CEM leukemia
IGROV1 ovarian = test system: IGROV1 ovarian
MDA-MB-435 = test system: MDA-MB-435
NCI/ADR-RES ovarian = test system: NCI/ADR-RES ovarian
SF-539 CNS = test system: SF-539 CNS
SNB-19 CNS = test system: SNB-19 CNS
SNB-75 CNS = test system: SNB-75 CNS
TK-10 renal = test system: TK-10 renal

C=C1C(=O)OC2C1CCC(=C)C1CC(O)C(=C)C12 (centres undefined)
TGI (CCRF-CEM leukemia): 7.44 µM
TGI (IGROV1 ovarian): 28 µM
TGI (MDA-MB-435): 58.8 µM
TGI (NCI/ADR-RES ovarian): 54.9 µM
TGI (SF-539 CNS): 35.2 µM
TGI (SNB-19 CNS): 66.6 µM
TGI (SNB-75 CNS): 37.3 µM
TGI (TK-10 renal): 20.6 µM

C=CCn1c(-c2cc(C(C)(C)C)c(O)c(C(C)(C)C)c2)cs/c1=N\C(P(=O)(O)O)P(=O)(O)O
TGI (IGROV1 ovarian): > 100 µM
TGI (MDA-MB-435): > 100 µM
TGI (NCI/ADR-RES ovarian): > 100 µM
TGI (SF-539 CNS): > 100 µM
TGI (SNB-19 CNS): > 100 µM
TGI (SNB-75 CNS): > 100 µM
TGI (TK-10 renal): > 100 µM

Cc1cc(OCc2nc(N)nc(N)c2-c2ccc(Cl)c(Cl)c2)ccc1[N+](=O)[O-]
TGI (CCRF-CEM leukemia): 2.27 µM
TGI (IGROV1 ovarian): > 41.1 µM
TGI (MDA-MB-435): 21.5 µM
TGI (NCI/ADR-RES ovarian): 18.6 µM
TGI (SF-539 CNS): 22.5 µM
TGI (SNB-19 CNS): > 55.1 µM
TGI (SNB-75 CNS): 13.7 µM
TGI (TK-10 renal): 13.4 µM

Cc1ccc(S(=O)(=O)NC(=O)Nc2c(S(N)(=O)=O)cc(S(N)(=O)=O)c(Cl)c2Cl)cc1
TGI (CCRF-CEM leukemia): > 100 µM
TGI (IGROV1 ovarian): > 100 µM
TGI (MDA-MB-435): > 100 µM
TGI (NCI/ADR-RES ovarian): > 100 µM
TGI (SF-539 CNS): > 100 µM
TGI (SNB-19 CNS): > 100 µM
TGI (TK-10 renal): > 100 µM

COc1ccc(-c2nc(-c3ccc(OC)cc3)n(-c3ccccc3)n2)cc1
TGI (CCRF-CEM leukemia): > 100 µM
TGI (IGROV1 ovarian): > 100 µM
TGI (MDA-MB-435): > 100 µM
TGI (NCI/ADR-RES ovarian): > 100 µM
TGI (SF-539 CNS): > 100 µM
TGI (SNB-19 CNS): > 100 µM
TGI (SNB-75 CNS): > 100 µM
TGI (TK-10 renal): > 100 µM

COc1ccc(/C=C2/N=C(N/N=C\C(O)C(O)C(O)CO)NC2=O)cc1 (centres undefined)
TGI (CCRF-CEM leukemia): > 100 µM
TGI (IGROV1 ovarian): > 100 µM
TGI (MDA-MB-435): > 100 µM
TGI (NCI/ADR-RES ovarian): > 100 µM
TGI (SF-539 CNS): 40.1 µM
GI50 (SNB-19 CNS): > 100 µM and 48.4 µM
TGI (SNB-19 CNS): > 100 µM
GI50 (SNB-75 CNS): > 100 µM and 41.4 µM
TGI (SNB-75 CNS): > 100 µM
TGI (TK-10 renal): > 100 µM

CC[C@H](C)[C@H](NC(=O)N(CCC#N)CCN(CCN(C(=O)N[C@@H](Cc1ccccc1)C(=O)OC)c1ccccc1)C(=O)N[C@H](C(=O)OC)C(C)C)C(=O)OC
TGI (CCRF-CEM leukemia): 56.1 µM
TGI (IGROV1 ovarian): 45.9 µM
TGI (MDA-MB-435): 36.3 µM
TGI (NCI/ADR-RES ovarian): 81.7 µM
TGI (SF-539 CNS): 49.1 µM
TGI (SNB-19 CNS): 35.9 µM
TGI (SNB-75 CNS): 43.1 µM
TGI (TK-10 renal): 38.5 µM

CCOC(=O)Oc1cc2ccsc2c2c1c1ccccc1n2C(=O)OCC
TGI (CCRF-CEM leukemia): > 100 µM
TGI (IGROV1 ovarian): > 100 µM
TGI (MDA-MB-435): > 100 µM
TGI (NCI/ADR-RES ovarian): > 100 µM
TGI (SF-539 CNS): > 100 µM
TGI (SNB-75 CNS): > 100 µM
TGI (TK-10 renal): > 100 µM

COc1ccccc1C1C2=C(COC2=O)Oc2cc3c(cc21)OCO3 (centres undefined)
TGI (CCRF-CEM leukemia): 16.8 µM
TGI (IGROV1 ovarian): > 100 µM
TGI (MDA-MB-435): 0.947 µM
TGI (NCI/ADR-RES ovarian): > 39.8 µM
TGI (SF-539 CNS): 5.32 µM
TGI (SNB-19 CNS): 72.3 µM
TGI (SNB-75 CNS): 21.9 µM
TGI (TK-10 renal): > 90.5 µM

C=C1CC[C@@]2(C)[C@@H]([C@@H]1C)[C@H]1CC[C@@H]3[C@@]4(C)CC[C@H](O)C(C)(C)[C@@H]4CC[C@@]3(C)[C@]1(C)C[C@@H]2O
TGI (CCRF-CEM leukemia): > 100 µM
TGI (IGROV1 ovarian): 3.77 µM
TGI (MDA-MB-435): 26 µM
TGI (NCI/ADR-RES ovarian): 14.2 µM
TGI (SF-539 CNS): 6.29 µM
TGI (SNB-19 CNS): 8.44 µM
TGI (TK-10 renal): 27 µM

c1ccc(-c2csc3c2-n2cccc2C3N2CCCC2)cc1 (centres undefined)
TGI (CCRF-CEM leukemia): > 100 µM
TGI (IGROV1 ovarian): > 100 µM
TGI (MDA-MB-435): > 100 µM
TGI (NCI/ADR-RES ovarian): > 100 µM
TGI (SF-539 CNS): > 100 µM
TGI (SNB-19 CNS): > 100 µM
TGI (SNB-75 CNS): > 100 µM
TGI (TK-10 renal): 99.7 µM

O=c1oc2ccc([N+](=O)[O-])cc2nc1/C=C(\O)c1ccccc1
TGI (CCRF-CEM leukemia): > 100 µM
TGI (IGROV1 ovarian): > 100 µM
TGI (MDA-MB-435): > 100 µM
TGI (NCI/ADR-RES ovarian): > 100 µM
TGI (SNB-19 CNS): > 100 µM
TGI (SNB-75 CNS): > 100 µM
TGI (TK-10 renal): 93.4 µM

O=[N+]([O-])c1ccc(CSc2nn(Cc3ccc([N+](=O)[O-])cc3)cc3ncnc2-3)cc1
TGI (IGROV1 ovarian): 52.1 µM
TGI (MDA-MB-435): 74.7 µM
TGI (NCI/ADR-RES ovarian): > 100 µM
TGI (SF-539 CNS): 95.5 µM
TGI (SNB-75 CNS): > 100 µM
TGI (TK-10 renal): > 100 µM

O=C([CH-]C(=O)c1ccccc1)c1ccccc1.[C-]#[O+].[C-]#[O+].[Ir]
GI50 (IGROV1 ovarian): 88.3 µM
TGI (IGROV1 ovarian): > 100 µM
GI50 (SF-539 CNS): 99.4 µM
TGI (SF-539 CNS): > 100 µM
GI50 (SNB-19 CNS): 66.4 µM
TGI (SNB-19 CNS): > 100 µM
GI50 (SNB-75 CNS): 45.6 µM
TGI (SNB-75 CNS): > 100 µM
GI50 (TK-10 renal): > 100 µM
TGI (TK-10 renal): > 100 µM

COc1ccccc1N1CCN(CCCCNC(=O)c2ccc([N+](=O)[O-])o2)CC1
TGI (CCRF-CEM leukemia): 58.2 µM
TGI (IGROV1 ovarian): 28.9 µM
TGI (MDA-MB-435): 12 µM
TGI (NCI/ADR-RES ovarian): > 100 µM
TGI (SF-539 CNS): 19.5 µM
TGI (SNB-19 CNS): 25.5 µM
TGI (TK-10 renal): 18.3 µM

CCOC(=O)c1c(N2CCCC2)[nH]c(=O)c(C(c2c(O)c(C(=O)OCC)c(N3CCCC3)[nH]c2=O)C(C)C)c1O
TGI (CCRF-CEM leukemia): > 100 µM
TGI (MDA-MB-435): > 100 µM
TGI (NCI/ADR-RES ovarian): > 100 µM
TGI (SF-539 CNS): > 100 µM
TGI (SNB-19 CNS): > 100 µM
TGI (SNB-75 CNS): 96.5 µM
TGI (TK-10 renal): > 100 µM

Cc1ccc(C2(O)c3ccccc3C(=O)N(C)C2(O)c2ccc(C)cc2)cc1 (centres undefined)
TGI (CCRF-CEM leukemia): 39.3 µM
TGI (IGROV1 ovarian): > 100 µM
TGI (MDA-MB-435): > 100 µM
TGI (NCI/ADR-RES ovarian): > 100 µM
TGI (SF-539 CNS): > 100 µM
TGI (SNB-19 CNS): 64.1 µM
TGI (TK-10 renal): > 100 µM

O=[N+]([O-])c1cc(C2(N3CCCCC3)CCCCC2)sc1Br
TGI (CCRF-CEM leukemia): 7.33 µM
TGI (IGROV1 ovarian): 25.1 µM
TGI (MDA-MB-435): 17 µM
TGI (NCI/ADR-RES ovarian): 28.2 µM
TGI (SF-539 CNS): 17.9 µM
TGI (SNB-19 CNS): 27.6 µM
TGI (TK-10 renal): 6.61 µM

Cc1ccc(Nc2c3c(c(C#N)c4nc5ccccc5n24)CCCC3)cc1
TGI (CCRF-CEM leukemia): 31.6 µM
TGI (IGROV1 ovarian): > 100 µM
TGI (MDA-MB-435): 45.8 µM
TGI (NCI/ADR-RES ovarian): 61.9 µM
TGI (SF-539 CNS): 43.4 µM
TGI (SNB-19 CNS): > 100 µM
TGI (TK-10 renal): > 100 µM

CC(=O)Nc1ccc(NC(=O)CC(=O)Nc2ccc(NC(C)=O)cc2)cc1
TGI (CCRF-CEM leukemia): > 100 µM
TGI (IGROV1 ovarian): > 100 µM
TGI (MDA-MB-435): > 100 µM
TGI (NCI/ADR-RES ovarian): > 100 µM
TGI (SF-539 CNS): > 100 µM
TGI (SNB-19 CNS): > 100 µM
TGI (TK-10 renal): > 100 µM

O=S(=O)(O)c1ccc2c(N=Nc3cccc4ccccc34)c(O)ccc2c1
TGI (CCRF-CEM leukemia): > 100 µM
TGI (IGROV1 ovarian): > 100 µM
TGI (MDA-MB-435): > 100 µM
TGI (NCI/ADR-RES ovarian): > 100 µM
TGI (SNB-19 CNS): > 100 µM
TGI (SNB-75 CNS): > 100 µM
TGI (TK-10 renal): > 100 µM

O=C1c2ccccc2N=C(c2cc3c(cc2Cl)Sc2nccn2S3(=O)=O)OS(=O)(=O)N1c1ccccc1
TGI (CCRF-CEM leukemia): 41.7 µM
TGI (MDA-MB-435): 51.4 µM
TGI (SF-539 CNS): > 100 µM
TGI (SNB-19 CNS): > 100 µM
TGI (SNB-75 CNS): 46.1 µM
TGI (TK-10 renal): > 100 µM

CN(C(=O)[C@H](NC(=O)OCc1ccccc1)c1ccccc1)C1CCCCC1N1CCCC1 (some centres undefined)
TGI (CCRF-CEM leukemia): > 100 µM
TGI (IGROV1 ovarian): > 100 µM
TGI (MDA-MB-435): > 100 µM
TGI (NCI/ADR-RES ovarian): > 100 µM
TGI (SNB-19 CNS): > 100 µM
TGI (SNB-75 CNS): > 100 µM
TGI (TK-10 renal): > 100 µM

COc1ccc2[nH]c3cc4c(=O)c5cc(OC)ccc5[nH]c4cc3c(=O)c2c1
TGI (IGROV1 ovarian): > 100 µM
TGI (MDA-MB-435): > 100 µM
TGI (NCI/ADR-RES ovarian): > 100 µM
TGI (SNB-19 CNS): > 100 µM
TGI (SNB-75 CNS): 67.5 µM
TGI (TK-10 renal): > 100 µM

CC(=N/NC(=S)N1CCCCCC1)/C(C)=N\NC(=S)N1CCCCCC1
TGI (IGROV1 ovarian): 8.44 µM
TGI (MDA-MB-435): 3.41 µM
TGI (NCI/ADR-RES ovarian): 16.8 µM
TGI (SF-539 CNS): > 100 µM
TGI (SNB-19 CNS): 48.1 µM
TGI (SNB-75 CNS): 10.9 µM
TGI (TK-10 renal): 8.87 µM
